{"source": "patent US6387955B1", "about": "“Enhanced anti-angiogenic activity of permanently charged derivatives of steroid hormones” (Pharmos Corporation, priority 1997, dated 2002)", "key": {"[1]": {"system": "MCF-7 tumors", "test": "Tumor necrosis in MCF-7 tumors by T2-weighted MRI", "assay_type": "in vivo, nude mice", "experimental": "Female CD1-nu/nu athymic mice (6 weeks old) were obtained from the Weizmann Institute Department of Animal Services. MCF-7 cells, serially passed as described above, were detached from the culturing flasks with 0.03% EDTA in phosphate buffered saline (PBS) and washed several times in normal saline. Cells (10^7/innoculum) were then injected into the ventral fat pad at the level of the breast. Coincident with cell introduction, a slow-release pellet of estradiol (0.72 mg/pellet, 45-day release profile; Innovative Research, Sarasota, Fla.) was implanted subcutaneously in the flank of the animal. Mice were anesthetized with ketamine/Rompun (i.p.) for the surgical procedures. […] At this point, animals were randomized into four study groups. In the first, the estrogen pellet was removed and replaced with a slow-release TMI-laden pellet (6.3 mg, 45-day release) (n=5). In the second group, the estrogen pellet was removed and replaced with a tamoxifen pellet (n=7). The third group was treated with a blank (placebo) pellet (n=5), while the fourth group was reimplanted with an estradiol pellet (n=4). TMI and placebo-treated animals were imaged (under ketamine/Rompun anesthesia) either immediately before pellet exchange (day 0) or at day 3, 6, 12 and 25 after pellet exchange.\nMRI images were recorded with a Bruker 4.7 (tesla)/30 Biospec spectrometer (Bruker Medizintechnik, Rheinstetten, Germany). 1H Spin-echo images were recorded at 200.12 MHz using a custom-made 4.5 cm rf coil with an image data matrix of 256×128 pixels. Pilot scans of the tumors were completed using a fast transverse multi-slice spin-echo sequence (giving T1-weighted spectra; inter-echo time (TE)=16 msec, recovery time (TR)=500 msec) followed by T2-weighted sequences in which axial slices perpendicular to the spine (i.e., a coronal orientation) were recorded. In the latter case, spin-echo images were obtained using a 4 cm field of view, 1 mm slice thickness, 1.2 mm slice-to-slice distance and a four-sequence average. The TE and TR were optimized to provide the best image contrast generating values of 80 and 3200 msec, respectively. This gave a total imaging time of approximately 30 min. Under the conditions reported, the in-plane resolution was 155×310 μm. Tumor size was calculated using a slice-to-slice reconstruction in which the slice surface area was obtained from histograms provided by the resident Bruker software package using the following relationship:\nwhere XSA is the cross-sectional area of an internal slice, ES is the cross-sectional area of an edge slice, l is the slice thickness and ssd is the distance from the middle of one slice to the middle of the next. For image analysis, the average pixel intensity of viable portions of MCF-7 tumors was determined from a central tumor slice using histograms generated by the dedicated Bruker software package. […] Fibrosis was defined as those areas manifesting a decrease in pixel intensity of […].\nIn vivo tumor histology was assessed for TMI and placebo-treated tumors using T2-weighted MR images. […] At this time, the area of necrosis was two-fold higher than that observed on day 0 (increasing from an average of 20% to approximately 40%)."}, "[2]": {"system": "murine endothelial cells in MCF-7 tumors", "test": "Endothelial cell area in GSL-1 lectin stained MCF-7 tumor sections", "assay_type": "in vivo, nude mice", "details": "viable areas of tumors, three days treatment, GSL-1 staining; control tumors 14%", "experimental": "For specific staining of endothelial cells, paraffin-embedded sections (4 μm) were deparafinized and rehydrated. Sections were first treated with a blocking solution containing nonimmune goat serum for 30 min at room temperature and then with a 0.1 mg/ml solution of biotinylated Griffonia simplicifolia lectin (GSL-1) for 60 min. The GSL-1 lectin binds specifically to α-galactosyl residues and marks the vascular endothelium in mice. The sections were then washed with TRIS buffered saline (TBS) and treated for 30 min with avidin-biotin-peroxidase complex (Vector Laboratories, Burlingame, Calif.), after which the peroxidase was activated by incubation of the sections with 0.1 M acetate buffer (pH 5.2) containing 3% H2O2 and 3% 3-amino-9-ethylcarbazole for 5-10 min. […] The area of stained endothelial cells was determined by measuring the area above a threshold intensity (red 46-165; green 25-119; blue 37-94) of the peroxidase reaction product in each slice. […] Ten to fifteen areas per section were recorded for tumors treated three days with either the placebo and TMI.\nVascular density of murine endothelial cells was evaluated by specific staining, using the GSL-1 lectin (the equivalent of factor VIII antibody staining for human endothelial systems) followed by color image analysis of the resulting sections. […]"}, "[3]": {"test": "Tolerability in mice", "assay_type": "in vivo", "details": "mice"}, "[4]": {"system": "Bovine endothelial cells", "test": "Endothelial cell tube formation on Matrigel", "assay_type": "cell-based", "details": "10 μM, image analysis", "experimental": "Bovine endothelial cells were harvested by brief exposure to 1 mM EDTA, washed with DMEM containing 0.1% bovine serum albumin and added to a layer of Matrigel (basement membrane components) in a 24 well plate to a density of 50,000 cells per well. After attachment, culture media (1.0 ml) was added and the plates incubated as a monolayer culture in the presence or absence of various concentrations of TMI. The plates were analyzed hourly using Hoffman optics for endothelial tube formation and growth. Photomicrographs were taken for estimation of relative inhibitory action.\nThe action of TMI on angiogenesis was evaluated using in vitro techniques. Bovine endothelial cells seeded on matrigel (a basement membrane preparation made up of laminin, collagen type IV, heparin sulfate proteoglycan and entactin) will form tubes which elongate as a function of time. […] A dose of 10 μM of TMI decreased tube area by more than 70%, as measured by image analysis."}}, "data": [{"smiles": "CC/C(=C(\\c1ccccc1)c1ccc(OCC[N+](C)(C)C)cc1)c1ccccc1", "note": "[TMI, Tamoxifen methiodide]", "values": [{"measurement": "total area of necrosis, day three average", "setting": "[1]; day 3 after pellet exchange", "value": 72, "unit": "%"}, {"measurement": "maximum extent of necrosis", "setting": "[1]; preliminary comparison of TMI and tamoxifen", "value": 72, "unit": "%"}, {"measurement": "onset of tumor necrosis", "setting": "[1]; sampling day after pellet exchange", "value": 3, "unit": "days"}, {"measurement": "mean percentage of endothelial cell areas", "setting": "[2]", "value": 5, "unit": "%"}, {"measurement": "tolerability", "setting": "[3]", "value": "well tolerated"}, {"measurement": "decrease of tube area", "setting": "[4]", "value": "more than 70%"}]}]}
